Test results as given in patent US20190240297A1, “TREATMENT OF INFLAMMATORY BOWEL DISEASE” (UNIVERSITÉ LAVAL, priority 2016, published 2019).

Assays:
P2Y6 receptor [1] = biological target: T1, P2Y6 receptor (Mus musculus, UniProt Q9ERK9); test: UDP stimulation of murine differentiated IEC, KC expression by qPCR; format: cell-based; conditions: 100 μM for 5 hours (FIG. 13A)
T1 construct: endogenous in cells; host or cells: primary differentiated intestinal epithelial cells from colon crypts of WT and Entpd8-/- mice
T1 sequence (Q9ERK9 whole entry): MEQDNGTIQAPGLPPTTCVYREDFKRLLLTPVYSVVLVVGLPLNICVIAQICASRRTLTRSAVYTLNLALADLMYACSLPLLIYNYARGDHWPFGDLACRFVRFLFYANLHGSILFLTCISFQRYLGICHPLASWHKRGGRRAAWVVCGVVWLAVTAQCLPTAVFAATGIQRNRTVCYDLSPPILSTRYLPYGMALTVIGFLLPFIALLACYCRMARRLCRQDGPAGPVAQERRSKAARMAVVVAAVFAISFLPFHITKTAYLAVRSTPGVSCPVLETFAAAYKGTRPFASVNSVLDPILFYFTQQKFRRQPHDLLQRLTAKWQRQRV
Text: (§1) Human colon pieces were recuperated and washed several times with D-PBS containing Fetal Bovine Serum (FBS), antibiotics, antifungal and gentamycin until the solution is clear. Epithelial unit containing stem cells (crypts) were isolated from human samples (as prepared above) or from the intestine of 10-12 weeks old mice by dissection and dissociated with collagenase type I (collagenase XI, DTT and dispase for human). Briefly, the longitudinal muscle layer from the colons were excised, washed with ice-cold Mg^2+ and Ca^2+ free Salt Solution (PBS) and then digested with 75 U/mL collagenase type I or collagenase XI. The digestion was stopped with Dulbecco's Modified Eagles Medium (DMEM/F12) containing 10% v/v foetal bovine serum (FBS). L-glutamine, Hepes. N-2 supplement, B-27 supplement and antibiotics. The digestion mixture was filtered with 70 μm filter and the effluent was centrifuged twice at 50×g for 5 min at 4° C. […]
(§2) Murine and human differentiated IEC were grown on plates and stimulated with UDP (100 μM) for 5 hours then the expression of KC (for mouse) and CXCL8 (for human) were evaluated by qPCR.
(§3) Genomic DNA was extracted from the tail of WT and Entpd8^−/− mice using Direct PCR Lysis Reagent to perform PCR using specific primers for NTPDase8 gene and neomycin as mentioned above. […] Primer sequences for cytokine analysed were purchased from Qiagen.

P2Y6 receptor [2] = biological target: T2, P2Y6 receptor (Homo sapiens, UniProt Q15077); test: UDP stimulation of human differentiated IEC, CXCL8 expression by qPCR; format: cell-based; conditions: 100 μM for 5 hours, 1 patient (FIG. 13B)
T2 construct: endogenous in cells; host or cells: primary differentiated intestinal epithelial cells from human colon crypts (1 patient)
T2 sequence (Q15077 whole entry): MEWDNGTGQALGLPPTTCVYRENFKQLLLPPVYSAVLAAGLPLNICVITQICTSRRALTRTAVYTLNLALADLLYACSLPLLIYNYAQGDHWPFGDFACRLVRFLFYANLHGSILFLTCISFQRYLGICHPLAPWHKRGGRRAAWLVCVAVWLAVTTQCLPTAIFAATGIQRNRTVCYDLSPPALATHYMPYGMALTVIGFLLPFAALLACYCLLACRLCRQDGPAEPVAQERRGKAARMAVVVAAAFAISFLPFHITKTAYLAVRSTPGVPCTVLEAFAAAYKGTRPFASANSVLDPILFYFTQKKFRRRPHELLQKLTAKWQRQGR
Text: as §1, §2, §3

DSS-induced colitis [3] = test: DSS-induced acute colitis, disease activity index (DAI) after intrarectal injection; format: in vivo, mouse
Experimental: (§4) All mice were treated or not (control mice) with 3% (w/v) DSS (molecular weight: 42 kDa) added to the drinking water for 7 days. Disease activity index (DAI) was evaluated daily by scoring percent of weight loss, intestinal bleeding (no blood, presence of blood), and stool consistency (normal stool, loose stool, or diarrhea) as previously described (Berberat P, 2005). For intrarectal injection mice were anesthetized and stool that may be present in distal colon was removed with pressure by fingertips to the posterior end of the animal. A 5F infant feeding tube catheter was inserted 4 cm (measured from the midway point between the 2 catheter side ports) into the colon. At this point, 100 μL of P2Y6 antagonist (MRS 2578 CAS number 711019-86-2, 10 μM), apyrase (4 Units/mice) or their vehicles DMSO or PBS respectively was administered slowly. Following the injection of the solution, animals were positioned head-down for 90 sec to avoid loss of the injected solution. Mice were euthanized 8 hr after the last intrarectal injection, tissue and plasma were isolated for experimental outcomes.

DSS-induced colitis [4] = test: In vivo intestinal permeability assay (FITC-dextran flux from intestine to plasma) in DSS-treated mice; design: species or system mouse
Experimental: as §4, with “For” for “All mice were treated or not (control mice) with 3% (w/v) DSS (molecular weight: 42 kDa) added to the drinking water for 7 days. Disease activity index (DAI) was evaluated daily by scoring percent of weight loss, intestinal bleeding (no blood, presence of blood), and stool consistency (normal stool, loose stool, or diarrhea) as previously described (Berberat P, 2005). For”
Intestinal permeability was assessed with fluorescein-labeled dextran (FITC-dextran) as described previously with some modification (Ashleigh Hansen, 2013). All mice were administrated by oral gavage with FITC-dextran (60 mg/[…] of mouse) 4 h after the intrarectal injection of MRS 2578, apyrase or vehicle (DMSO or PBS). Another 4 hours later, mice were euthanized and whole blood was obtained by cardiac puncture. Plasma was isolated and the movement of FITC-flux from colonic lumen into the plasma was measured by fluorometry at 488 nm. Data are expressed as total quantity of dextran-FITC in 100 μl of plasma.

IEC = test: KC secretion by DSS-treated IEC (ELISA of basolateral supernatant); format: cell-based, mouse; conditions: WT and Entpd8-/- IEC, DSS 3% 24 hours; 10 μM added 6 hours after DSS for last 18 hours (FIG. 14B)
Text: as §1
In other experiments, murine IEC were grown on permeable supports, stimulated on the apical chamber with DSS 3% for 6 hours then the P2Y6 antagonist MRS 2578 (10 μM) was added for the following 18 hours. The supernatant from basolateral chamber was collected and KC secretion was evaluated by Elisa. […]

IEC monolayers = test: In vitro intestinal permeability assay (FITC-dextran) on DSS-treated IEC monolayers; format: cell-based, mouse; conditions: WT and Entpd8-/- IEC, DSS 3% 24 hours; 10 μM added 6 hours after DSS for last 18 hours (FIG. 14A)
Text: as §1, with “Hepes.” for “Hepes. N-2 supplement, B-27 supplement and antibiotics. The digestion mixture was filtered with 70 μm filter and the effluent was centrifuged twice at 50×g for 5 min at 4° C.”
In other experiments, murine IEC were grown on permeable supports, stimulated on the apical chamber with DSS 3% for 6 hours then the P2Y6 antagonist MRS 2578 (10 μM) was added for the following 18 hours. The supernatant from basolateral chamber was collected and KC secretion was evaluated by Elisa.
Intestinal permeability was assessed with fluorescein-labeled dextran (FITC-dextran) as described previously with some modification (Ashleigh Hansen 2013). […] 4 hours later, samples were taken from the bottom chambers and fluorescence intensity in the samples was measured. Data were expressed as total quantity of dextran-FITC in supernatant.

O=c1ccn([C@@H]2O[C@H](COP(=O)(O)OP(=O)(O)O)[C@@H](O)[C@H]2O)c(=O)[nH]1 [UDP]
KC expression (mRNA) (P2Y6 receptor [1]): significant increase
CXCL8 expression (mRNA) (P2Y6 receptor [2]): significant increase

apyrase
Protection from colitis as determined by DAI (DSS-induced colitis [3]; WT mice, DSS, 4 U/mice intrarectally daily day 2 to day 7, vs PBS (FIG. 11A)): fully protected
Disease activity index (DAI) / inflammation (DSS-induced colitis [3]; WT mice, DSS, 4 U/mice intrarectally in late phase, day 5 to day 7, vs PBS (FIG. 11C)): reduced inflammation
Protection from colitis as determined by permeability measurements (DSS-induced colitis [4]; WT mice, 4 U/mice intrarectally daily day 2 to day 7, vs PBS (FIG. 11B)): fully protected

S=C=Nc1cccc(NC(=S)NCCCCNC(=S)Nc2cccc(N=C=S)c2)c1 [MRS 2578]
KC (chemokine) secretion (IEC): decreasing epithelial permeability and chemokines secretion
Disease activity index (DAI) / inflammation (DSS-induced colitis [3]; Entpd8-/- mice, 3% DSS 7 days, 10 μM intrarectally daily day 2 to day 7, vs DSS alone (FIG. 10A)): reduced inflammation and the DAI
Disease activity index (DAI) / inflammation (DSS-induced colitis [3]; WT mice, 3% DSS 7 days, 10 μM intrarectally daily day 2 to day 7, vs DSS alone (FIG. 10C)): reduced inflammation and the DAI
Intestinal permeability, FITC-dextran flux from intestine to plasma (DSS-induced colitis [4]; Entpd8-/- and WT mice, day 7, 10 μM intrarectally day 2 to day 7 (FIG. 10B, D)): significantly ameliorated the permeability
Epithelial permeability (FITC-dextran in basolateral chamber) (IEC monolayers): decreasing epithelial permeability
